ChEMBL document CHEMBL5335863, “Design, Synthesis, and Evaluation of 8-(o-Tolyl)quinazoline Derivatives as Small-Molecule PD-1/PD-L1 Antagonists” (ACS Med Chem Lett, 2024)

Tested on: Jurkat
Test: Cytotoxicity against human Jurkat cells assessed as reduction in cell viability at 3.3 uM incubated for 48 hrs by CCK-8 assay
Type: toxicity, cell-based
Conditions: not given

| Compound | Activity |
| --- | --- |
| Cc1c(COc2cc(OCc3cccc(C#N)c3)c(CNC[C@@H](O)CO)cc2Cl)cccc1-c1cccc2c(Oc3cc(OCc4cccc(C#N)c4)c(CNC[C@@H](O)CO)cc3Cl)ncnc12 | Non-Toxic |

Biological target: T1, Programmed cell death protein 1/Programmed cell death 1 ligand 1 (Homo sapiens, UniProt Q15116+Q9NZQ7)
Test: Inhibition of PD-1/PD-L1 interaction in co-culture of Jurkat-NFAT-PD-1 cells expressing PD-1 and reporter gene and Hep3B-OS8-hPD-L1 cells expressing OS-8 and human PD-L1 assessed as increase in luminescence intensity incubated for 6 hrs by luminometry
Conditions: dose 0.4-1.11 µM

T1 sequence (Q15116 whole entry): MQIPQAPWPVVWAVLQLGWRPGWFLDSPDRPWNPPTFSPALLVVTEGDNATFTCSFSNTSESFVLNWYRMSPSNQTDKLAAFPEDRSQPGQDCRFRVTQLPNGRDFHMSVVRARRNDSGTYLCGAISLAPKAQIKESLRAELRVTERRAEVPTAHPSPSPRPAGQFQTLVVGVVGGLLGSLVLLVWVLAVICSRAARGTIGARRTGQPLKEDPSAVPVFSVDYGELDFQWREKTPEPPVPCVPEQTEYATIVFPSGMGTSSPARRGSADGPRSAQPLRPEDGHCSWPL
T1 sequence (Q9NZQ7 whole entry): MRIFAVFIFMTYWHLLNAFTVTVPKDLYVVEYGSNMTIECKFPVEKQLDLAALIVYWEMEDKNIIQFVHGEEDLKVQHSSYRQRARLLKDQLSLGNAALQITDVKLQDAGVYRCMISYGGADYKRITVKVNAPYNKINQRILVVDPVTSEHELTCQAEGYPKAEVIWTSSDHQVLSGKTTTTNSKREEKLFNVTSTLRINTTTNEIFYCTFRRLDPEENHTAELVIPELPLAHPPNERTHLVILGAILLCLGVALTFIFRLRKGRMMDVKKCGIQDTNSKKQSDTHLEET

| Compound | inhibition |
| --- | --- |
| Cc1c(COc2cc(OCc3cccc(C#N)c3)c(CNC[C@@H](O)CO)cc2Cl)cccc1-c1cccc2c(Oc3cc(OCc4cccc(C#N)c4)c(CNC[C@@H](O)CO)cc3Cl)ncnc12 | Dose-Dependent Effect |

Biological target: T1, Programmed cell death protein 1/Programmed cell death 1 ligand 1
Test: Inhibition of PD-1/PD-L1 interaction (unknown origin) incubated for 60 min by HTRF assay
Type: protein-complex assay
Conditions: not given

| Compound | IC50 |
| --- | --- |
| Cc1c(COc2cc(OCc3cccc(C#N)c3)c(CNC3CC3)cc2Cl)cccc1-c1cccc2c(Oc3cc(OCc4cccc(C#N)c4)c(CNC4CC4)cc3Cl)ncnc12 | 0.39 µM |
| Cc1c(COc2cc(OCc3cccc(C#N)c3)c(CO)cc2Cl)cccc1-c1cccc2c(Oc3cc(OCc4cccc(C#N)c4)c(CO)cc3Cl)ncnc12 | > 1 µM |
| Cc1c(COc2cc(OCc3cccc(C#N)c3)c(CNC3CCC3)cc2Cl)cccc1-c1cccc2c(Oc3cc(OCc4cccc(C#N)c4)c(CNC4CCC4)cc3Cl)ncnc12 | 0.105 µM |
| Cc1c(Nc2nccc3cc(CN4CC[C@H](O)C4)cnc23)cccc1-c1cccc(-c2nc3cc(CN4CC[C@H](C(=O)O)C4)cc(C#N)c3o2)c1C | 0.0121 µM |
| Cc1c(COc2cc(OCc3cccc(C#N)c3)c(CNC[C@@H](O)CO)cc2Cl)cccc1-c1cccc2c(Oc3cc(OCc4cccc(C#N)c4)c(CNC[C@@H](O)CO)cc3Cl)ncnc12 | 0.0238 µM |
| Cc1c(COc2cc(OCc3cccc(C#N)c3)c(C=O)cc2Cl)cccc1-c1cccc2c(Oc3cc(OCc4cccc(C#N)c4)c(C=O)cc3Cl)ncnc12 | > 1 µM |
| Cc1c(COc2cc(OCc3cccc(C#N)c3)c(CN(C)CCO)cc2Cl)cccc1-c1cccc2c(Oc3cc(OCc4cccc(C#N)c4)c(CN(C)CCO)cc3Cl)ncnc12 | 0.0448 µM |
| Cc1c(COc2cc(OCc3cccc(C#N)c3)c(CNC(C)C)cc2Cl)cccc1-c1cccc2c(Oc3cc(OCc4cccc(C#N)c4)c(CNC(C)C)cc3Cl)ncnc12 | 0.0515 µM |
| Cc1c(COc2cc(OCc3cccc(C#N)c3)c(CN3CCC(O)CC3)cc2Cl)cccc1-c1cccc2c(Oc3cc(OCc4cccc(C#N)c4)c(CN4CCC(O)CC4)cc3Cl)ncnc12 | 0.0758 µM |
| Cc1c(COc2cc(OCc3cccc(C#N)c3)c(CNC(CO)(CO)CO)cc2Cl)cccc1-c1cccc2c(Oc3cc(OCc4cccc(C#N)c4)c(CNC(CO)(CO)CO)cc3Cl)ncnc12 | 0.0253 µM |
| Cc1c(COc2cc(OCc3cccc(C#N)c3)c(CNC[C@H](O)CO)cc2Cl)cccc1-c1cccc2c(Oc3cc(OCc4cccc(C#N)c4)c(CNC[C@H](O)CO)cc3Cl)ncnc12 | 0.0339 µM |
| Cc1c(COc2cc(OCc3cccc(C#N)c3)c(CN3CC[C@H](O)C3)cc2Cl)cccc1-c1cccc2c(Oc3cc(OCc4cccc(C#N)c4)c(CN4CC[C@H](O)C4)cc3Cl)ncnc12 | 0.0555 µM |
| CCNCc1cc(Cl)c(OCc2cccc(-c3cccc4c(Oc5cc(OCc6cccc(C#N)c6)c(CNCC)cc5Cl)ncnc34)c2C)cc1OCc1cccc(C#N)c1 | 0.0485 µM |
| Cc1c(COc2cc(OCc3cccc(C#N)c3)c(CNC3CCOCC3)cc2Cl)cccc1-c1cccc2c(Oc3cc(OCc4cccc(C#N)c4)c(CNC4CCOCC4)cc3Cl)ncnc12 | 0.0597 µM |
| CC(=O)NCCNCc1cc(Cl)c(OCc2cccc(-c3cccc4c(Oc5cc(OCc6cccc(C#N)c6)c(CNCCNC(C)=O)cc5Cl)ncnc34)c2C)cc1OCc1cccc(C#N)c1 | 0.0614 µM |
| Cc1c(COc2cc(OCc3cccc(C#N)c3)c(CNC(CO)CO)cc2Cl)cccc1-c1cccc2c(Oc3cc(OCc4cccc(C#N)c4)c(CNC(CO)CO)cc3Cl)ncnc12 | 0.0472 µM |
| CC(CO)(CO)NCc1cc(Cl)c(Oc2ncnc3c(-c4ccc5c(c4)OCCO5)cccc23)cc1OCc1cccc(C#N)c1 | 0.0408 µM |
| Cc1c(COc2cc(OCc3cccc(C#N)c3)c(CN3CC[C@@H](O)C3)cc2Cl)cccc1-c1cccc2c(Oc3cc(OCc4cccc(C#N)c4)c(CN4CC[C@@H](O)C4)cc3Cl)ncnc12 | 0.0462 µM |
| Cc1c(COc2cc(OCc3cccc(C#N)c3)c(CNC(C)(CO)CO)cc2Cl)cccc1-c1cccc2c(Oc3cc(OCc4cccc(C#N)c4)c(CNC(C)(CO)CO)cc3Cl)ncnc12 | 0.0302 µM |
| Cc1c(COc2cc(OCc3cccc(C#N)c3)c(CNC3CCCCC3)cc2Cl)cccc1-c1cccc2c(Oc3cc(OCc4cccc(C#N)c4)c(CNC4CCCCC4)cc3Cl)ncnc12 | 0.167 µM |
| Cc1c(COc2cc(OCc3cccc(C#N)c3)c(CNC3CCCC3)cc2Cl)cccc1-c1cccc2c(Oc3cc(OCc4cccc(C#N)c4)c(CNC4CCCC4)cc3Cl)ncnc12 | 0.112 µM |
| Cc1c(COc2cc(OCc3cccc(C#N)c3)c(CNCCO)cc2Cl)cccc1-c1cccc2c(Oc3cc(OCc4cccc(C#N)c4)c(CNCCO)cc3Cl)ncnc12 | 0.0377 µM |
| COCCNCc1cc(Cl)c(OCc2cccc(-c3cccc4c(Oc5cc(OCc6cccc(C#N)c6)c(CNCCOC)cc5Cl)ncnc34)c2C)cc1OCc1cccc(C#N)c1 | 0.101 µM |
